Key:
Type in all cases: cell-based
[1] = tested on: S. saprophyticus ATCC-49907; assay: MIC, broth microdilution, S. saprophyticus ATCC-49907; design: unit not given beside the values; conditions: S. saprophyticus ATCC-49907, Gram +ve; pH 3; 18 to 24 hours
Description: (§1) MIC testing is conducted using the broth (Mueller Hinton Broth) microdilution procedures relevant to each organism group as established by the Clinical and Laboratory Standards Institute (CLSI; 3-7). MIC plates are prepared in accordance with CLSI (3-7). To prepare the test plates, automated liquid handlers are used to conduct serial dilutions and liquid transfers. Automated liquid handlers utilized in this study include the Multidrop 384 (Labsystems, Helsinki, Finland) and the Biomek 2000 (Beckman Coulter, Fullerton CA). The solution is diluted to desired pH using 1 M Citric Acid or 1 M NaOH buffer. A standardized inoculum of each test organism is prepared per CLSI methods (3, 5-7) to equal a 0.5 McFarland standard in the appropriate media followed by an additional 1:20 dilution (1:10 for anaerobes).
(§2) The plates are then inoculated with 10 μL of the diluted 0.5 McFarland suspension using the Biomek 2000 from low to high drug concentration, resulting in a final concentration of approximately 5×10^5 CFU/mL per well. An un-inoculated plate is incubated for the purpose of assessing solubility of the drug in the test media. The plates are stacked 3 to 4 high, covered with a sterile lid on the top plate, and incubated for 18 to 24 hours according to CLSI. The MIC is recorded as the lowest concentration of respective compound that inhibited visible growth of the organism.

[2] = tested on: S. dysgalactiae ATCC-6644; assay: MIC, broth microdilution, S. dysgalactiae ATCC-6644; design: unit not given beside the values; conditions: S. dysgalactiae ATCC-6644, Gram +ve; pH 3; 18 to 24 hours
Description: as §1, §2

[3] = tested on: Staphylococcus aureus (43330); assay: MIC, broth microdilution, Staphylococcus aureus (43330); conditions: pH 3, Mueller Hinton Broth, 18 to 24 hours, read-out: MIC
Description: as §1, §2

E. faecalis MMX-3353 = assay: MIC, broth microdilution, E. faecalis MMX-3353; conditions: E. faecalis MMX-3353, Gram +ve; pH 3; 18 to 24 hours
Description: as §1, §2

H. influenzae ATCC-49247 = assay: MIC, broth microdilution, H. influenzae ATCC-49247; design: unit not given beside the values; conditions: H. influenzae ATCC-49247, Gram −ve; pH 3; 18 to 24 hours
Description: as §1, §2

[4] = tested on: Pseudomonas aeruginosa (27853); assay: MIC, broth microdilution, Pseudomonas aeruginosa (27853); conditions: pH 3, Mueller Hinton Broth, 18 to 24 hours, read-out: MIC
Description: as §1, §2

E. faecium ATCC-35667 = assay: MIC, broth microdilution, E. faecium ATCC-35667; conditions: E. faecium ATCC-35667, Gram +ve; pH 3; 18 to 24 hours
Description: as §1, §2

A. baumannii ATCC-19606 = assay: MIC, broth microdilution, A. baumannii ATCC-19606; design: unit not given beside the values; conditions: A. baumannii ATCC-19606, Gram −ve; pH 3; 18 to 24 hours
Description: as §1, §2

S. agalactiae ATCC-13813 = assay: MIC, broth microdilution, S. agalactiae ATCC-13813; design: unit not given beside the values; conditions: S. agalactiae ATCC-13813, Gram +ve; pH 3; 18 to 24 hours
Description: as §1, §2

E. faecium MMX-3355 = assay: MIC, broth microdilution, E. faecium MMX-3355; design: unit not given beside the values; conditions: E. faecium MMX-3355, Gram +ve; pH 3; 18 to 24 hours
Description: as §1, §2

C. striatum ATCC-6940 = assay: MIC, broth microdilution, C. striatum ATCC-6940; conditions: C. striatum ATCC-6940, Gram +ve; pH 3; 18 to 24 hours
Description: as §1, §2

K. pneumoniae ATCC-43816 = assay: MIC, broth microdilution, K. pneumoniae ATCC-43816; design: unit not given beside the values; conditions: K. pneumoniae ATCC-43816, Gram −ve; pH 3; 18 to 24 hours
Description: as §1, §2

E. coli ATCC-25922 = assay: MIC, broth microdilution, E. coli ATCC-25922; design: unit not given beside the values; conditions: E. coli ATCC-25922, Gram −ve; pH 3; 18 to 24 hours
Description: as §1, §2

E. faecalis ATCC-29212 = assay: MIC, broth microdilution, E. faecalis ATCC-29212; design: unit not given beside the values; conditions: E. faecalis ATCC-29212, Gram +ve; pH 3; 18 to 24 hours
Description: as §1, §2

[5] = tested on: K. pneumoniae ATCC BAA-2146; assay: MIC, broth microdilution, K. pneumoniae ATCC BAA-2146; design: unit not given beside the values; conditions: K. pneumoniae ATCC BAA-2146, Gram −ve; pH 3; 18 to 24 hours
Description: as §1, §2

Escherichia coli (25922) = assay: MIC, broth microdilution, Escherichia coli (25922); conditions: pH 3, Mueller Hinton Broth, 18 to 24 hours, read-out: MIC
Description: as §1, §2

S. aureus ATCC -3591 = assay: MIC, broth microdilution, S. aureus ATCC -3591; design: unit not given beside the values; conditions: S. aureus ATCC -3591, Gram +ve; pH 3; 18 to 24 hours
Description: as §1, §2

P. mirabilis CDC-0155 = assay: MIC, broth microdilution, P. mirabilis CDC-0155; design: unit not given beside the values; conditions: P. mirabilis CDC-0155, Gram −ve; pH 3; 18 to 24 hours
Description: as §1, §2

M. morganii CDC-0519 = assay: MIC, broth microdilution, M. morganii CDC-0519; design: unit not given beside the values; conditions: M. morganii CDC-0519, Gram −ve; pH 3; 18 to 24 hours
Description: as §1, §2

E. cloacae ATCC BAA-2468 = assay: MIC, broth microdilution, E. cloacae ATCC BAA-2468; design: unit not given beside the values; conditions: E. cloacae ATCC BAA-2468, Gram −ve; pH 3; 18 to 24 hours
Description: as §1, §2

E. coli MMX-8870 = assay: MIC, broth microdilution, E. coli MMX-8870; conditions: E. coli MMX-8870, Gram −ve; pH 3; 18 to 24 hours
Description: as §1, §2

C. freundii CDC-0157 = assay: MIC, broth microdilution, C. freundii CDC-0157; design: unit not given beside the values; conditions: C. freundii CDC-0157, Gram −ve; pH 3; 18 to 24 hours
Description: as §1, §2

[6] = tested on: A. radioresistens MMX-8551; assay: MIC, broth microdilution, A. radioresistens MMX-8551; design: unit not given beside the values; conditions: A. radioresistens MMX-8551, Gram −ve; pH 3; 18 to 24 hours
Description: as §1, §2

S. aureus ATCC-29213 = assay: MIC, broth microdilution, S. aureus ATCC-29213; design: unit not given beside the values; conditions: S. aureus ATCC-29213, Gram +ve; pH 3; 18 to 24 hours
Description: as §1, §2

S. pyogenes ATCC-49399 = assay: MIC, broth microdilution, S. pyogenes ATCC-49399; design: unit not given beside the values; conditions: S. pyogenes ATCC-49399, Gram +ve; pH 3; 18 to 24 hours
Description: as §1, §2

[7] = tested on: S. haemolyticus ATCC-29970; assay: MIC, broth microdilution, S. haemolyticus ATCC-29970; conditions: S. haemolyticus ATCC-29970, Gram +ve; pH 3; 18 to 24 hours
Description: as §1, §2

P. aeruginosa ATCC-27853 = assay: MIC, broth microdilution, P. aeruginosa ATCC-27853; design: unit not given beside the values; conditions: P. aeruginosa ATCC-27853, Gram −ve; pH 3; 18 to 24 hours
Description: as §1, §2

Candida albicans (22972) = assay: MIC, broth microdilution, Candida albicans (22972); conditions: pH 3, Mueller Hinton Broth, 18 to 24 hours, read-out: MIC
Description: as §1, §2

Compound: CCCCOP(=O)(O)OC[C@H]1O[C@@H](n2ccc(N)nc2=O)C(F)(F)[C@@H]1O [LAI-006, ((2R,3R,5R)-5-(4-amino-2-oxopyrimidin-1(2H)-yl)-4,4-difluoro-3-hydroxytetrahydrofuran-2-yl)methyl butyl hydrogen phosphate]
- MIC [1]: 0.10
- MIC [2]: 0.05
- MIC [3]: 2.3 mg/mL
- MIC (E. faecalis MMX-3353): 3.13
- MIC (H. influenzae ATCC-49247): 0.78
- MIC [4]: 800 µg/mL
- MIC (E. faecium ATCC-35667): 1.56
- MIC (A. baumannii ATCC-19606): 0.39
- MIC (S. agalactiae ATCC-13813): 0.10
- MIC (E. faecium MMX-3355): 3.13
- MIC (C. striatum ATCC-6940): 0.78
- MIC (K. pneumoniae ATCC-43816): 0.78
- MIC (E. coli ATCC-25922): 0.39
- MIC (E. faecalis ATCC-29212): 0.39
- MIC [5]: 0.78
- MIC (Escherichia coli (25922)): 600 µg/mL
- MIC (S. aureus ATCC -3591): 3.13
- MIC (P. mirabilis CDC-0155): 3.13
- MIC (M. morganii CDC-0519): 3.13
- MIC (E. cloacae ATCC BAA-2468): 0.39
- MIC (E. coli MMX-8870): 0.78
- MIC (C. freundii CDC-0157): 3.13
- MIC [6]: 0.39
- MIC (S. aureus ATCC-29213): 1.56
- MIC (S. pyogenes ATCC-49399): 0.39
- MIC [7]: 0.10
- MIC (P. aeruginosa ATCC-27853): 0.78
- MIC (Candida albicans (22972)): 50 mg/mL

Compound: CCCCOP(=O)(O)OC[C@H]1O[C@@H](n2ccc(N(C)C)nc2=O)C[C@@H]1O [LAI-008, butyl (((2R,3S,5R)-5-(4-(N,N-dimethylamino)-2-oxopyrimidin-1(2H)-yl)-3-hydroxytetrahydrofuran-2-yl)methyl) hydrogen phosphate]
- MIC [1]: 3.13
- MIC [2]: 3.12
- MIC [3]: 25 mg/mL
- MIC (E. faecalis MMX-3353): 6.25
- MIC (H. influenzae ATCC-49247): 0.78
- MIC [4]: 5000 µg/mL
- MIC (E. faecium ATCC-35667): 3.13
- MIC (A. baumannii ATCC-19606): 12.50
- MIC (S. agalactiae ATCC-13813): 3.12
- MIC (E. faecium MMX-3355): 3.13
- MIC (C. striatum ATCC-6940): 3.12
- MIC (K. pneumoniae ATCC-43816): 12.50
- MIC (E. coli ATCC-25922): 6.25
- MIC (E. faecalis ATCC-29212): 3.13
- MIC [5]: 12.50
- MIC (Escherichia coli (25922)): 1000 µg/mL
- MIC (S. aureus ATCC -3591): 6.25
- MIC (P. mirabilis CDC-0155): 3.13
- MIC (M. morganii CDC-0519): 3.13
- MIC (E. cloacae ATCC BAA-2468): 12.50
- MIC (E. coli MMX-8870): 12.50
- MIC (C. freundii CDC-0157): 3.13
- MIC [6]: 12.50
- MIC (S. aureus ATCC-29213): 1.56
- MIC (S. pyogenes ATCC-49399): 3.12
- MIC [7]: 0.39
- MIC (P. aeruginosa ATCC-27853): 5.63
- MIC (Candida albicans (22972)): 50 mg/mL

Reference: patent publication US20260297118A1, “SUBSTITUTED PYRIMIDINONE AND AZAPYRIMIDINONE COMPOUNDS, COMPOSITIONS, AND USES THEREOF” (LAKEWOOD AMEDEX, INC., priority 2023, published 2026)
